Paper PMC2904697, “A Screen for Kinetochore-Microtubule Interaction Inhibitors Identifies Novel Antitubulin Compounds” (PLoS ONE, 2010)
Values joined by “and” are separate entries in the source; they are usually repeats but may differ in a detail not shown here. Equal values may be shown once.

Assays:
taxol-stabilized MTs = assay: Compound-based depolymerization of taxol-stabilized MTs in vitro; type: biochemical, bovine; conditions: compound 50 µmol/l; taxol (20 µmol/l)-stabilized MTs
Procedure: To test this hypothesis, we treated HeLa cells with 0.5 µmol/l taxol, thereby arresting them in metaphase with stabilized spindles. […] To quantify the taxol-mediated inhibition of MT disassembly by compound B, we measured in vitro the depolymerization of taxol (20 µmol/l)-stabilized MTs following incubation with 50 µmol/l compound B (the screen condition). Nocodazole and maytansine (both at 50 µmol/l) were included as controls. At 50 µmol/l, compound B depolymerized 3% of the taxol-stabilized MT population, while nocodazole and maytansine depolymerized 11% and 31% of the taxol-treated MTs, respectively (Fig. 4B). […] This finding further supports our hypothesis that the interaction of compound B with the stabilized MTs must have prevented the Ndc80^488 complex from establishing contact with the MT surface.
(§1) MTs were polymerized (30 min, 37°C) from a 1∶10 mixture of rhodamine-labeled:unlabeled bovine brain αβ-tubulin (Cytoskeleton) in BRB-80 buffer (80 mmol/l PIPES pH 6.8, 1 mmol/l MgCl2, 1 mmol/l EGTA) and were then stabilized with 20 µmol/l taxol. The Ndc80^488 complex (0.1 µmol/l) was incubated with 100 µmol/l compound (30 min, 24°C) in 96-well polypropylene plates (Eppendorf). The 10,000 compound DIVERset library (Chembridge) and 200 compounds from the Department of Medicinal Chemistry and Technologies, University of Rome La Sapienza were used in the screen. Next, the MTs (100 nmol/l) were added to the compound-Ndc80^488 complex solution in a 1∶1 v/v ratio. After incubation (10 min, 24°C), the reaction mixtures were transferred to 96-well glass-bottom plates (Greiner Bio-one). Each well was imaged at 519 nm and 590 nm with an IX81 Olympus inverted wide-field microscope (Olympus). Total internal reflection fluorescence imaging was performed with an Olympus IX71 inverted wide-field microscope (Olympus). ImageJ was used for image processing (NIH, USA).
Taxol-stabilized MTs were prepared and diluted as described for the Ndc80^488 binding experiments. Varying compound concentrations in 10 µl of DMSO were added to 490 µl of diluted MTs at 37°C. Following incubation (30 min, 37°C), 450 µl of each mixture was centrifuged (10 min; 30,000 rpm; 37°C) in a Beckman Optima TLX centrifuge (TLA120.1 rotor). Pellets were dissolved in 25 µl of 8 mol/l urea, and the protein content of 20 µl was compared with that from pellets formed without compound.

[1] = target: recombinant human Ndc80 kinetochore complex binding to taxol-stabilized microtubules; assay: Ndc80^488 complex-MT binding assay (fluorescence microscopy / TIRF); conditions: for IC50: total internal reflection fluorescence microscopy, Ndc80^488 complex 0.1 µmol/l, taxol-stabilized MTs; for Fold more active than compound B in the Ndc80^488 complex-MT binding assay: versus compound B
Description: To screen compound libraries for molecules inhibiting binding of the outer kinetochore Ndc80 complex (Ndc80, Nuf2, Spc24, Spc25) to MTs, we used a fluorescence microscopy-based in vitro approach (Fig. 1). First, the recombinant human Ndc80 construct, used to crystallize the complex, was produced in Escherichia coli using a bicistronic plasmid from which the Nuf2-Spc24 and Ndc80-Spc25 peptides were generated (Fig. 1A). Following their intracellular assembly, the complex was purified from E. coli cell extract based on the GST tag at the N-terminus of Nuf2. The complex was released in solution with PreScission Protease (its recognition sequence was introduced between the GST tag and the NUF2 coding sequence) and was separated from contaminants by gel filtration chromatography (Fig. 1A). The high degree of purity of the preparation was confirmed by SDS-PAGE analysis and coomassie staining, which identified only both peptides (Fig. 1B). Next, the Ndc80 complex was fluorescently labeled with the Alexa Fluor 488 C5-maleimide (next named the Ndc80^488 complex) and was separated from unreacted fluorophore by gel filtration chromatography. The final preparation was highly pure as evidenced by gel filtration analysis and detection at 519 nm (emission maximum of the Alexa Fluor 488 dye) and at 280 nm (intrinsic protein fluorescence) (Fig. 1B). Next, the Ndc80^488 complex (0.1 µmol/l) was incubated with 10,200 compounds (comprising the Chembridge DIVERset and a compound collection from the Univ. Rome) at a starting concentration of 50 µmol/l. Binding (or lack thereof) of the complex to rhodamine-labeled taxol-stabilized MTs (0.1 µmol/l) was scored by wide-field fluorescence microscopy (Fig. 1C; images in Fig. 2A). […] Total internal reflection fluorescence microscopy was used to establish the IC50 value of the compound, which was measured to be ∼20 µmol/l (Fig. 2C).
Recombinant human Ndc80 complex (Ndc80^Bonsai complex) was produced in Escherichia coli using a bicistronic expression plasmid (Fig. 1A, [12]). Following transcription from the TAC promoter/operator by induction with 0.4 mmol/l IPTG (20°C, 15 h), GST-Nuf2-Spc24 and Ndc80-Spc25 polypeptides were generated, which dimerized intracellulary into the GST-Ndc80 complex. The complex was isolated from E. coli cell extract following incubation with glutathione beads. The complex was released from the beads with PreScission Protease (GE Healthcare Life Sciences) and contaminants were removed by gel filtration chromatography (Superdex 200, GE Healthcare Life Sciences). On average 4 mg of Ndc80 complex were obtained from 1 liter of cell culture. Next, 1 mg Ndc80 complex was labeled with 0.1 mg Alexa Fluor 488 C5-maleimide fluorophore (Invitrogen) at a 1.5-2 stoichiometry. The fluorescent complex (Ndc80^488 complex) was separated from unreacted fluorophore by gel filtration chromatography (Fig. 1B) and was then used to screen for compounds inhibiting Ndc80^488 complex-MT binding (Fig. 1C). The Ndc80^488 complex is fully functional as it is recruited to and acts at kinetochores when injected into prometaphase HeLa cells.
as §1, with “Each well was imaged at 519 nm and 590 nm with an IX81 Olympus inverted wide-field microscope (Olympus). Total internal reflection fluorescence imaging was performed with an Olympus IX71 inverted wide-field microscope (Olympus). ImageJ was used for image processing (NIH, USA).” left out

αβ-tubulin = assay: Tubulin polymerization tracked turbidimetrically at 350 nm; type: biochemical; conditions: turbidimetric; versus compound B
Procedure: To quantify the antitubulin activity of compound B, we added 1–50 µmol/l compound B to 10 µmol/l αβ-tubulin. […] For this purpose, MTs were assembled from 10 µmol/l αβ-tubulin; 5 min into the reaction compound B was added in concentrations up to 200 µmol/l. MT depolymerization was tracked as a decrease in turbidity at 350 nm (Fig. 5B).
Polymerization of 10 µmol/l αβ-tubulin in BRB-80 buffer was monitored turbidimetrically at 350 nm for 15 min in a temperature-controlled spectrophotometer (37°C; SpectraMax Plus^384, Molecular Devices). To probe the effect of a compound on MT stability the molecule was added 5 min after initiation of tubulin assembly. The decrease in protein turbidity (350 nm) resulting from MT depolymerization was followed for 15 min at 37°C [13]. Quantitative comparisons of drug effects on tubulin assembly were also examined in 0.8 M glutamate with a 15 min drug-tubulin preincubation prior to the addition of GTP [14]. Tubulin assembly was monitored for 20 min at 30°C in Beckman DU7400/7500 spectrophotometers, and the compound concentration inhibiting tubulin assembly by 50% was determined.

[2] = system: colchicine site in αβ-tubulin; assay: [3H]colchicine competition (DEAE-cellulose filter method); type: binding; conditions: [3H]colchicine 5 µmol/l, tubulin 1 µmol/l
Description: Agents that inhibit tubulin polymerization and destabilize MTs include the colchicinoids, combretastatins, benzimidazole carbamates, vinca alkaloids, and maytansinoids. These drugs act primarily at β-tubulin in the αβ-heterodimer, albeit at different sites. Colchicinoids, combretastatins and benzimidazole carbamates (e.g. nocodazole) localize to the colchicine site near the C-terminus of β-tubulin at the αβ-tubulin intradimer interface, [16], whereas vinca alkaloids and maytansinoids localize to the N-terminal GTPase domain of β-tubulin [17], [18]. […] Its binding affinity, however, was ∼3-fold lower than that of nocodazole (compare values at 5 µmol/l and 20 µmol/l, Fig. 5C).
Tubulin binding of [^3H]colchicine was measured by the DEAE-cellulose filter method. Reaction mixtures contained 1.0 µmol/l αβ-tubulin, 1.0 mol/l monosodium glutamate, 0.1 mol/l glucose-1-phosphate, 1.0 mmol/l MgCl2, 1.0 mmol/l GTP, 0.5 mg/ml BSA, 5% DMSO, 5 µmol/l [^3H]colchicine, and inhibitor at 1, 5, 20 or 50 µmol/l. These reaction conditions strongly stabilize the colchicine-binding activity of tubulin [21].

HeLa cells = assay: Mitotic delay and cell death in G1/S-synchronized HeLa cells (time-lapse videomicroscopy); type: cell-based, human; conditions: HeLa released from G1/S; 500 nmol/l
Procedure: At compound B concentrations of 5 µmol/l and above, the cells arrested robustly in metaphase (∼15 h) and then underwent cell death, as diagnosed by cell shrinkage (Fig. 3B). […] This phenotype is indicative of chromatids being unable to bind to spindle MTs and/or of spindle defects, as observed with nocodazole (Fig. 3C). […] Because drugs that inhibit tubulin polymerization also destabilize MTs, we next probed whether compound B destabilized metaphase spindles. We arrested HeLa cells in metaphase using 10 µmol/l of proteosome inhibitor MG132. […] Thus, compound B prevents tubulin assembly and destabilizes spindle MTs in cells.
Next, we determined whether the elevated antitubulin activities of compounds A6, A8, D7 and E7 (versus compound B), and the discrepancies in activity between the compounds themselves were reflected in their effects on mitosis. G1/S synchronized HeLa cells were released into growth medium containing 100 or 500 nmol/l of these compounds or compound B; the duration of the mitotic delay by the compounds and the percentage of cells undergoing subsequent cell death were scored. […] The four compounds triggered mitotic delays to an extent that directly reflects their activities in vitro (compare Fig. 6E and Fig. 6, panels B to D). […] Of note, each of our compounds acted in cells with an efficacy exceeding those measured in vitro (compare Fig. 6E and Fig. 5). This discrepancy may be due to increased compound:tubulin ratios in cells. Alternatively, the compounds may be modified intracellularly, resulting in enhanced activity. Because compound B and the four second-generation compounds are 6-furan-2-yl-3-methyl-4-oxo-4,5,6,7-tetrahydro-1H-indole-2-carboxylic acid derivatives, we have named these tubulin inhibitors “furan-metoticas”.

## COc1cc2cc(c1Cl)N(C)C(=O)C[C@H](OC(=O)[C@H](C)N(C)C(C)=O)[C@]1(C)O[C@H]1[C@H](C)[C@@H]1C[C@@](O)(NC(=O)O1)[C@H](OC)/C=C/C=C(\C)C2 [maytansine, reference compound]
taxol-stabilized MTs
  Taxol-stabilized MT population depolymerized: 31%

## C/C=C/COC(=O)c1[nH]c2c(c1C)C(=O)C[C@@H](c1ccco1)C2 [D7]
[1]
  IC50: ~1000 nM and 1000 nM
  Fold more active than compound B in the Ndc80^488 complex-MT binding assay: ~20 fold
αβ-tubulin
  Fold lower IC50 for inhibiting tubulin assembly than that of compound B: 3.0 fold
[2]
  Fold more active than compound B as inhibitors of [3H]colchicine-tubulin binding: 3 fold
HeLa cells
  Effect on mitosis at 500 nmol/l: robust mitotic block, followed by cell death

## C=CCOC(=O)c1[nH]c2c(c1C)C(=O)C[C@@H](c1ccco1)C2 [E7]
[1]
  IC50: ~1000 nM and 1000 nM
  Fold more active than compound B in the Ndc80^488 complex-MT binding assay: ~20 fold
αβ-tubulin
  Fold lower IC50 for inhibiting tubulin assembly than that of compound B: 4.0 fold
[2]
  Fold more active than compound B as inhibitors of [3H]colchicine-tubulin binding: 3 fold
HeLa cells
  Effect on mitosis at 500 nmol/l: robust mitotic block, followed by cell death

## Cc1c(C(=O)OC2CCCCC2)[nH]c2c1C(=O)C[C@@H](c1ccco1)C2 [A6]
[1]
  IC50: ~1000 nM and 1000 nM
  Fold more active than compound B in the Ndc80^488 complex-MT binding assay: ~20 fold
αβ-tubulin
  Fold lower IC50 for inhibiting tubulin assembly than that of compound B: 2.3 fold
[2]
  Fold more active than compound B as inhibitors of [3H]colchicine-tubulin binding: 3 fold
